Among the data in ChEMBL document CHEMBL1201862, “PubChem BioAssay data set” (2004) are EC50, IC50 and AC50 values, retold here.

The structures appear in SMILES notation. Calls of active or inactive are those of the source. Where only a bound is given, the exact number is not on record here.

Assay [1] deals with Sphingosine 1-phosphate receptor 2 (Homo sapiens, UniProt O95136). Description: Dose Response Cell Based Assay for Agonists of the S1P2 Receptor. [Related pubchem assays: 729, 736, 843 ]. The format is functional.
Assay [2] addresses T1, Rac GTPase-activating protein 1 (Homo sapiens, UniProt Q9H0H5).
T1 sequence (Q9H0H5 whole entry): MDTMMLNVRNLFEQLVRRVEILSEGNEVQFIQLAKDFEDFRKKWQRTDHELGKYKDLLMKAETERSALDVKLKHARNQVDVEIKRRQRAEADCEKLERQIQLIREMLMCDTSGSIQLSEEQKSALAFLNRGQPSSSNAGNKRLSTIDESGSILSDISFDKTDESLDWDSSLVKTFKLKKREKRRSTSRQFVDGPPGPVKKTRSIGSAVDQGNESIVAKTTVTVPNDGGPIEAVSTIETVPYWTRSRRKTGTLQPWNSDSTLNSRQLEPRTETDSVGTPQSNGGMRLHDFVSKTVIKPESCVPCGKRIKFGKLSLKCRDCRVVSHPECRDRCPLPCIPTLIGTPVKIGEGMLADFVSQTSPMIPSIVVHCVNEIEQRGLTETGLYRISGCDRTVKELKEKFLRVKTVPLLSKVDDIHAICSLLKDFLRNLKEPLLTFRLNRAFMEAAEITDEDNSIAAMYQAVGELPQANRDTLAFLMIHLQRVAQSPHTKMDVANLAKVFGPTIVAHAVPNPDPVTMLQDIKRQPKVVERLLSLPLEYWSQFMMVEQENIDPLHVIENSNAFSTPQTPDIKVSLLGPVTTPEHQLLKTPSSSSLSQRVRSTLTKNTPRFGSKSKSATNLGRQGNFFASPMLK
Description: MgcRacGAP GTPase-activating activity inhibitors, confirmation, biochemical, ADP Hunter fluorescence, primary and confirmatory (AID 624330). Format: functional.

Assay [3] deals with T2, Apoptotic protease-activating factor 1 (Homo sapiens, UniProt O14727).
T2 sequence (O14727 whole entry): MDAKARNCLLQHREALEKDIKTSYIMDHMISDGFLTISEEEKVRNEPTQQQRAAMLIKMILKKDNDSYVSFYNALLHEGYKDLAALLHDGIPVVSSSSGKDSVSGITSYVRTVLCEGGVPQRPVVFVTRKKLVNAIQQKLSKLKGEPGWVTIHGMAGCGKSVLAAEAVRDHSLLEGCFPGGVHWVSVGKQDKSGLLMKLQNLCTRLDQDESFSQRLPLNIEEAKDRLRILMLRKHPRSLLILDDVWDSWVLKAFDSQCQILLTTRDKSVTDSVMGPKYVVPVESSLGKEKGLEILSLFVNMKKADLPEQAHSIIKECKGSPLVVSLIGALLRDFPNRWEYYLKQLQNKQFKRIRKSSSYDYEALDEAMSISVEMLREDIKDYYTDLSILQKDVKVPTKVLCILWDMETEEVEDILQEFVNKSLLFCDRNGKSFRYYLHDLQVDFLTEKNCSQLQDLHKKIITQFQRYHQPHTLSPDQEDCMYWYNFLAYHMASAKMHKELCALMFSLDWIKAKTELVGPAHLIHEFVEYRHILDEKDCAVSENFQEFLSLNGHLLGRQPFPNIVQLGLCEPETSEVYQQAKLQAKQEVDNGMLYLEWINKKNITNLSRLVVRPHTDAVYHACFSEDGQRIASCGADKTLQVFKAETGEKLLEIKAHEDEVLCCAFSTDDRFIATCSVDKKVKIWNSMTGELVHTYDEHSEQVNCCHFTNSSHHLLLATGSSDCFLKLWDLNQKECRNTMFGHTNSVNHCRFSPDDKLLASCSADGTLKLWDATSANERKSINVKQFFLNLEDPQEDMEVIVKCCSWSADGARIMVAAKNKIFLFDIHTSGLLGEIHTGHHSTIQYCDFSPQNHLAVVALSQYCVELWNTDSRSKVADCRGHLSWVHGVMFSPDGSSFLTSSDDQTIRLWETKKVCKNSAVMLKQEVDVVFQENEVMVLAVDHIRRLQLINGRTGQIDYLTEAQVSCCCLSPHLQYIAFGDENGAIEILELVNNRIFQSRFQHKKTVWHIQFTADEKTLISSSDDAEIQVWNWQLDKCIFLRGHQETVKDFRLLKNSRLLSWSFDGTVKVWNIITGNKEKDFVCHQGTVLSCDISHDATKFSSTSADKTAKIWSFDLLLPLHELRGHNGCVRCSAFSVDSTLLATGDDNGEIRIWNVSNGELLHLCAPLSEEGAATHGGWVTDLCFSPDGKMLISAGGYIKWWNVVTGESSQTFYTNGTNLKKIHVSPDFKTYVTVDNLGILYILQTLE
Format: functional.

For assay [4], the target named is Mannose-6-phosphate isomerase (Homo sapiens, UniProt P34949). Description: human PMI inhibitors, high substrate, primary screen, biochemical, fluorescence intensity, high mannose 6-phosphate (AID 1220).
Assay [5] addresses Mitogen-activated protein kinase 10 (Homo sapiens, UniProt P53779). Description: Dose response biochemical screening assay for inhibitors of c-Jun N-Terminal Kinase 3 (JNK3). [Related pubchem assays: 746 ].
In the next assay the target is T3, Aminopeptidase N (Plasmodium falciparum FcB1/Columbia, UniProt O96935).
T3 sequence (O96935 whole entry): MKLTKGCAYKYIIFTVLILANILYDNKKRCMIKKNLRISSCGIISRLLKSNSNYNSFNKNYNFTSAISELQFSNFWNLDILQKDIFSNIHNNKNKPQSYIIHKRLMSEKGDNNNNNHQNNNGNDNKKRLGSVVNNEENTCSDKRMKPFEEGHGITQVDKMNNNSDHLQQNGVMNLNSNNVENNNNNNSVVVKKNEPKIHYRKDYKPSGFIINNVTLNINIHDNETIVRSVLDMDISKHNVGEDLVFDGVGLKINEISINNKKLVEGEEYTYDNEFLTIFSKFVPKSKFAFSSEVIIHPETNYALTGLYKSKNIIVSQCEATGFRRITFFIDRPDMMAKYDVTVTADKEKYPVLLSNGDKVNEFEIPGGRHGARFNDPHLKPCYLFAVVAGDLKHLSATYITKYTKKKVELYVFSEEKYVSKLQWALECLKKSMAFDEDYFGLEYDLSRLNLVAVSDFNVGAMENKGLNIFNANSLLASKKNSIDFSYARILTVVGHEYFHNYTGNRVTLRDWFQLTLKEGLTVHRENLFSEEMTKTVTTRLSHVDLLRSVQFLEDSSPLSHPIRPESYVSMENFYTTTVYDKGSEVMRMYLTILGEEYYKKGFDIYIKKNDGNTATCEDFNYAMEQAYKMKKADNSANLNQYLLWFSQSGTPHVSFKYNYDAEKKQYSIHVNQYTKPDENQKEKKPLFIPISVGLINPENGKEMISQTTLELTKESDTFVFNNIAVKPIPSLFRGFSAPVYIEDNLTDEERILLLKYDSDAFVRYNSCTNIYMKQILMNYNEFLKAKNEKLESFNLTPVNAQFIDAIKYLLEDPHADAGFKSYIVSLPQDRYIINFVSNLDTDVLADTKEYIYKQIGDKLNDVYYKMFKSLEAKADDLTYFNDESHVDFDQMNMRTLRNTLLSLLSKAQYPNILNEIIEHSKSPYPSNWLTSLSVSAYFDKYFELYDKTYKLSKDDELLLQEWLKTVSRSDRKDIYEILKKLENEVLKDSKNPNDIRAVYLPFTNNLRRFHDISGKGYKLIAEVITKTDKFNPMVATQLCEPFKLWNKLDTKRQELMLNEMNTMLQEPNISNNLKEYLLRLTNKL
Put plainly: P. falciparum M1AAP inhibitors, biochemical, fluorogenic H-Leu-NHMec substrate, 1536-well (AID 1445). The arrangement: species or system Plasmodium falciparum 3D7, 3D7.

The target in assay [6] is Bifunctional protein GlmU (Mycobacterium tuberculosis, UniProt P9WMN3). Put plainly: Inhibitors of Mycobacterial Glucosamine-1-phosphate acetyl transferase (GlmU). Secondary screen. The arrangement: species or system Mycobacterium tuberculosis H37Rv.
A further assay addresses T4, Hexokinase HKDC1 (Homo sapiens, UniProt Q2TB90).
T4 sequence (Q2TB90 whole entry): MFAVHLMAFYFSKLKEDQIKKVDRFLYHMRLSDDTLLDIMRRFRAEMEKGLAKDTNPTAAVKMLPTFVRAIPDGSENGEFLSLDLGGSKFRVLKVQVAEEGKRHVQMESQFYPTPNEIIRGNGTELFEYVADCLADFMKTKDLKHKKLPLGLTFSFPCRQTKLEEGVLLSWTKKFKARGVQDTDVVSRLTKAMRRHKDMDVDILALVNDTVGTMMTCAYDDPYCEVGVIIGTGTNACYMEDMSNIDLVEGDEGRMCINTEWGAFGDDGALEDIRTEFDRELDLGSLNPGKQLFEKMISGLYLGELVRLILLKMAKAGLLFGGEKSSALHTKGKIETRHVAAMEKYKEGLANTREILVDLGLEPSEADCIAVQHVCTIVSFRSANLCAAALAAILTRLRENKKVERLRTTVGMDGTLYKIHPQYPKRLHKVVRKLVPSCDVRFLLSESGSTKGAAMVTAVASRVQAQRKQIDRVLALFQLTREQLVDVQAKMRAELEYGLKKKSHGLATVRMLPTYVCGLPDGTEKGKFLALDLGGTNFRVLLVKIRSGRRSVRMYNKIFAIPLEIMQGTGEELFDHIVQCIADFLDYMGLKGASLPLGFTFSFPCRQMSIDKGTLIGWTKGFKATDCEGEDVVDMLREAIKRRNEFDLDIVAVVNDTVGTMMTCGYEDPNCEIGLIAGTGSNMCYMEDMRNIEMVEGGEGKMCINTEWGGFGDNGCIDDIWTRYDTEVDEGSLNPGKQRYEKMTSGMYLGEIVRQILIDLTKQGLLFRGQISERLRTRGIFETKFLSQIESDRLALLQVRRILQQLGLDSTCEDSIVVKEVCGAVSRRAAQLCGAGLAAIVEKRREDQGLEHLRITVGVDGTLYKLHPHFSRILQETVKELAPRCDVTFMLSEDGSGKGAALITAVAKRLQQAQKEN
Put plainly: HKDC1 hexokinase inhibitors, dose response, biochemical, W721R variant (AID 504729). Format: functional.

The target of assay [7] is T5, Histone-lysine N-methyltransferase NSD2 (Homo sapiens, UniProt O96028).
T5 sequence (O96028 whole entry): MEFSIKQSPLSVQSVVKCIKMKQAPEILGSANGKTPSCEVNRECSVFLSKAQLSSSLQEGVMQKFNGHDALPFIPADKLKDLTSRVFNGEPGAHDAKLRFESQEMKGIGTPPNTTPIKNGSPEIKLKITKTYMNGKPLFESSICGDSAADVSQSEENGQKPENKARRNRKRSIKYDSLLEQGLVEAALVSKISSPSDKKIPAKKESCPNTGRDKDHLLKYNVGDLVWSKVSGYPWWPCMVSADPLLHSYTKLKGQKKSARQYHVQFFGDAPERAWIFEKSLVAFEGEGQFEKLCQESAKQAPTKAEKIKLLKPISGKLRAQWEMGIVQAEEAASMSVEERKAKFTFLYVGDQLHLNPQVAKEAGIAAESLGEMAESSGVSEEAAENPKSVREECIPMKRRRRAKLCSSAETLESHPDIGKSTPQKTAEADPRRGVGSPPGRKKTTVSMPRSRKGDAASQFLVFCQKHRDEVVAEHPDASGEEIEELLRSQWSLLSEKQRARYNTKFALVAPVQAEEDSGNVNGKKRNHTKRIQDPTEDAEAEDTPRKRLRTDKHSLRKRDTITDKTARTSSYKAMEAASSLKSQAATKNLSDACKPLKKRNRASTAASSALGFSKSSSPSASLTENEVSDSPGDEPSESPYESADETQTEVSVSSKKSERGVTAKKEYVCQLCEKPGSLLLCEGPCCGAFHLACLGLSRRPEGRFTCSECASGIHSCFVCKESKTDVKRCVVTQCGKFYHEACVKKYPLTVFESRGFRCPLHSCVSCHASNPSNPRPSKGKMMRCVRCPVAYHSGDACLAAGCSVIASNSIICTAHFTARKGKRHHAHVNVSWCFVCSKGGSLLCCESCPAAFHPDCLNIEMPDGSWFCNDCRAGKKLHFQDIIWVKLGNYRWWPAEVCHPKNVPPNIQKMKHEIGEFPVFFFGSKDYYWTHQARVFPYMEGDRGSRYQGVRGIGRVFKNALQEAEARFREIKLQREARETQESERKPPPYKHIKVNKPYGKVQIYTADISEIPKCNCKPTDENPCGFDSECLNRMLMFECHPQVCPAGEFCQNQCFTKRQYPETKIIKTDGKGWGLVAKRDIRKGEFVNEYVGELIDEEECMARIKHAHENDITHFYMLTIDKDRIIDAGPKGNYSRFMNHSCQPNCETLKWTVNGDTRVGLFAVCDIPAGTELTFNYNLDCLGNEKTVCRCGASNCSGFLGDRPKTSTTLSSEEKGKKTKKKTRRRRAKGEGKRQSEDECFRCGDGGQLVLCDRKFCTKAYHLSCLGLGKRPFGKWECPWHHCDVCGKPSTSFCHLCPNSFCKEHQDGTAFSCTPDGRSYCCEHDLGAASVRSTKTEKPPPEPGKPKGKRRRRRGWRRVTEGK
The format is biochemical.

A short description of assay [8]: inhibitors of Bluetongue virus cytopathic effect, confirmation, arbovirus, BSR cells (AID 1250).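 Note: protection from viral cytopathic effect measured as cell viability by ATP luminescence.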 Format: functional.

Chain of Mitogen-activated protein kinase 10 (P53779 whole entry): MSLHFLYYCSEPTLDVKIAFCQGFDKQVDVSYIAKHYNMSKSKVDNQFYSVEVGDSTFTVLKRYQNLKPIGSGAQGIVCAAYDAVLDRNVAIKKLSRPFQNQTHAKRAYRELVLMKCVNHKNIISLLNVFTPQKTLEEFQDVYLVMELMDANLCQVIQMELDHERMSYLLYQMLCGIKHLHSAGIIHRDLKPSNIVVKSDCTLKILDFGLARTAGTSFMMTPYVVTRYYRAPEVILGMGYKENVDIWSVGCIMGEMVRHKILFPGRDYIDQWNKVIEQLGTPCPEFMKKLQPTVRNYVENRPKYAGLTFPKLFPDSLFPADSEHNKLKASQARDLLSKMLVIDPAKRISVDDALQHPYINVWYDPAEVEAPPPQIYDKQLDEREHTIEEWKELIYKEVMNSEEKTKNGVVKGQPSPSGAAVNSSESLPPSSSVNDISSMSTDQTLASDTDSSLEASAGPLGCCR
Chain of Sphingosine 1-phosphate receptor 2 (O95136 whole entry): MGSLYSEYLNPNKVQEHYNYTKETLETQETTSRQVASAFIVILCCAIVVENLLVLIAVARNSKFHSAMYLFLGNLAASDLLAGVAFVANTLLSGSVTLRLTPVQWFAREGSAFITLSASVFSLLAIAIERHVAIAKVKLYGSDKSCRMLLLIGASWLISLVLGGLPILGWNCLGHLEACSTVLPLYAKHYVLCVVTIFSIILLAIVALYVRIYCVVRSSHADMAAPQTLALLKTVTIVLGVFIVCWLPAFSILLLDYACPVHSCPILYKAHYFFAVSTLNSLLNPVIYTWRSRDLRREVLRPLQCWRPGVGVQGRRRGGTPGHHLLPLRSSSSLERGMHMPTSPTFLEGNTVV
Chain of Bifunctional protein GlmU (P9WMN3 whole entry): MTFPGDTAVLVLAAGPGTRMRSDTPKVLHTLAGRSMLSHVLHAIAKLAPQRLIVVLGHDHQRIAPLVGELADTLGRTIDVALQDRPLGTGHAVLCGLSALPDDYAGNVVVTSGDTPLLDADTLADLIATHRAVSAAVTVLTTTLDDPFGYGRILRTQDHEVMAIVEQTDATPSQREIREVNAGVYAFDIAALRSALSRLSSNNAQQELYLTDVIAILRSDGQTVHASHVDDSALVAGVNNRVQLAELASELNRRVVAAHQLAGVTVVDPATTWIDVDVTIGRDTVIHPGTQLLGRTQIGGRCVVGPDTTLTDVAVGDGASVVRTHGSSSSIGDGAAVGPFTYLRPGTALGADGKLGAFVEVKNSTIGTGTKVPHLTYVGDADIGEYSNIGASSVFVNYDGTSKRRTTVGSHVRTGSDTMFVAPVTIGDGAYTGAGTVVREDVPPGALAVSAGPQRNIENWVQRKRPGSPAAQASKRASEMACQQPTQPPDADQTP
Chain of Mannose-6-phosphate isomerase (P34949 whole entry): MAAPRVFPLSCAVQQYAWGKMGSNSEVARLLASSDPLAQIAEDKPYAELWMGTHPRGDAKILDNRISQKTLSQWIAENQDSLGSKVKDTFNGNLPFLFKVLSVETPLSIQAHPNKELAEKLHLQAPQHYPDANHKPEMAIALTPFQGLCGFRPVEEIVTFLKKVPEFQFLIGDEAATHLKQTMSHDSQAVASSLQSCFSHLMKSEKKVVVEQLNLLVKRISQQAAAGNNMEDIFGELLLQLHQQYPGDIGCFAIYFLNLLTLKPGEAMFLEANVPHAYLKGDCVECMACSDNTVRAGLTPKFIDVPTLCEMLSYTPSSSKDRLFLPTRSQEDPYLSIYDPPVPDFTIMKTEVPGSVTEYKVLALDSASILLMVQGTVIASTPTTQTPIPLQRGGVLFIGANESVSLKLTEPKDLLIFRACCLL

In general, EC50 refers to the concentration needed to bring the measured effect to its halfway point. For `COC(=O)c1c[nH]nc1N=C(S)Nc1ccccc1C`, the EC50 in assay [1] was > 50 µM (not active).

By IC50 is commonly meant the concentration at which inhibition is half-maximal. Consider `CC1(C)CNc2cc(N)ccc2S1`, for which the IC50 in assay [2] is 22.9 µM (active); in assay [3], 7.45 µM (active); in [4], > 50 µM (not active).

Turning to `Cc1nn(C)cc1CNC(=O)c1cnn2c(C(F)F)cc(C3CC3)nc12`, the IC50 in assay [5] is 26.8 µM (not active).

Broadly, the AC50 is the concentration giving half of the maximal activity seen. Take `COc1cc(/C=C(\C#N)c2nc3cc(C)ccc3[nH]2)cc([N+](=O)[O-])c1O`: the IC50 at Aminopeptidase N was 16.2 µM (active); in assay [6], 94.3 µM (active); on Hexokinase HKDC1, 16.1 µM (active); in [8], 24.5 µM (active). The AC50 in [7] was > 20 µM (inactive).
